Laboratory results from patent US4396543A.
Converted amounts (≈) assume the structure as drawn. “And” between values parts separate entries of the source, which are not always exact repeats. Equal values may be shown once.

Assays:
[1] = test system: Streptococcus pyogenes C203; test: agar-dilution MIC; assay type: cell-based; settings: two values = two experiments, 2 median of five, 19 median of three
[2] = test system: Streptococcus pyogenes; test: in vivo experimental bacterial infection, ED50; settings: mice; for ED50 Values Streptococcus pyogenes Oral: two doses orally; for ED50 Values Streptococcus pyogenes Subcutaneous: two doses subcutaneously, two values = two experiments
[3] = test system: Staphylococcus aureus; test: in vivo experimental bacterial infection, ED50; settings: mice, two doses subcutaneously; two values = two experiments
[4] = test system: Staphylococcus aureus X400; test: agar-dilution MIC; assay type: cell-based; settings: Staphylococcus aureus X400, methicillin-resistant strain; two values = two experiments; 2 median of five, 19 median of three
Procedure: (§1) In Table VII activity is measured by the minimal inhibitory concentration (MIC), i.e. the lowest concentration of compound at which growth of the microorganism is inhibited by the test compound.

[5] = test system: Streptococcus Group D X66; test: agar-dilution MIC; assay type: cell-based; settings: two values = two experiments, 2 median of five, 19 median of three
Procedure: as §1

[6] = test system: Staphylococcus epidermidis EPI1; assay type: cell-based; settings: two values = two experiments, 2 median of five, 19 median of three
[7] = toxicity test, LD50; settings: mouse, in vivo, iv; administered intravenously; read-out: LD50 (mg/kg) in Mice
[8] = test system: Staphylococcus aureus X1.1; test: agar-dilution MIC; assay type: cell-based; settings: two values = two experiments, 2 median of five, 19 median of three experiments
Procedure: as §1

[9] = test system: Staphylococcus aureus V41; test: agar-dilution MIC; assay type: cell-based; settings: Staphylococcus aureus V41, penicillin-resistant strain; two values = two experiments; 2 median of five, 19 median of three
Procedure: as §1

[10] = test system: Streptococcus pneumoniae Park I; assay type: cell-based; settings: two values = two experiments, 2 median of five, 19 median of three
Procedure: as §1

[11] = test system: Staphylococcus epidermidis EPI2; test: agar-dilution MIC; assay type: cell-based; settings: two values = two experiments, 2 median of five, 19 median of three
[12] = test system: Streptococcus Group D 9960; test: agar-dilution MIC; assay type: cell-based; settings: two values = two experiments, 2 median of five, 19 median of three
Procedure: as §1

**Q.** Which MIC [1] does the source give for `CCCCCCCCCCCC(=O)NCCCCCCCCCCC(=O)N[C@@H](Cc1c[nH]c2ccccc12)C(=O)N[C@H](CC(N)=O)C(=O)N[C@@H](CC(=O)O)C(=O)N[C@@H]1C(=O)NCC(=O)N[C@@H](CCCN)C(=O)N[C@@H](CC(=O)O)C(=O)N[C@H](C)C(=O)N[C@@H](CC(=O)O)C(=O)NCC(=O)N[C@H](CO)C(=O)N[C@@H]([C@H](C)CC(=O)O)C(=O)N[C@@H](CC(=O)c2ccccc2N)C(=O)O[C@@H]1C` [Compound 3] here?
**A.** 2 µg/mL (≈ 1.09 µM)

**Q.** What about the “ED50 Values Streptococcus pyogenes Oral” value [2] of the same molecule?
**A.** > 200 mg/kg × 2

**Q.** What about the “ED50 Values Streptococcus pyogenes Subcutaneous” value [2] of the same molecule?
**A.** 6.2 mg/kg × 2

**Q.** What about the “ED50 Values Staphylococcus aureus Subcutaneous” value [3] of the same molecule?
**A.** > 18 mg/kg × 2

**Q.** What about the MIC [4] of the same molecule?
**A.** 8 µg/mL (≈ 4.37 µM)

**Q.** What about the MIC [5] of the same molecule?
**A.** 8 µg/mL (≈ 4.37 µM)

**Q.** What about the MIC [6] of the same molecule?
**A.** 8 µg/mL (≈ 4.37 µM)

**Q.** And the LD50 [7]?
**A.** 600 mg/kg

**Q.** What about the MIC [8] of the same molecule?
**A.** 2 µg/mL (≈ 1.09 µM)

**Q.** What about the MIC [9] of the same molecule?
**A.** 2 µg/mL (≈ 1.09 µM)

**Q.** What about the MIC [10] of the same molecule?
**A.** 0.5 µg/mL (≈ 0.273 µM)

**Q.** What about the MIC [11] of the same molecule?
**A.** 8 µg/mL (≈ 4.37 µM)

**Q.** And the MIC [12]?
**A.** 8 µg/mL (≈ 4.37 µM)

**Q.** Which results are given for `CCCCCCCCCCCC(=O)Nc1cccc(C(=O)N[C@@H](Cc2c[nH]c3ccccc23)C(=O)N[C@H](CC(N)=O)C(=O)N[C@@H](CC(=O)O)C(=O)N[C@@H]2C(=O)NCC(=O)N[C@@H](CCCN)C(=O)N[C@@H](CC(=O)O)C(=O)N[C@H](C)C(=O)N[C@@H](CC(=O)O)C(=O)NCC(=O)N[C@H](CO)C(=O)N[C@@H]([C@H](C)CC(=O)O)C(=O)N[C@@H](CC(=O)c3ccccc3N)C(=O)O[C@@H]2C)c1` [Compound 5]?
**A.** MIC [1]: 0.25 µg/mL (≈ 0.141 µM); ED50 Values Streptococcus pyogenes Oral [2]: > 200 mg/kg × 2; ED50 Values Streptococcus pyogenes Subcutaneous [2]: > 0.25 mg/kg × 2 and 0.46 mg/kg × 2; ED50 Values Staphylococcus aureus Subcutaneous [3]: 1.67 mg/kg × 2; MIC [4]: 1 µg/mL (≈ 0.566 µM); MIC [5]: 4 µg/mL (≈ 2.26 µM); MIC [6]: 2 µg/mL (≈ 1.13 µM); LD50 [7]: 277 mg/kg; MIC [8]: 0.5 µg/mL (≈ 0.283 µM); MIC [9]: 0.5 µg/mL (≈ 0.283 µM); MIC [10]: 0.25 µg/mL (≈ 0.141 µM); MIC [11]: 1 µg/mL (≈ 0.566 µM); MIC [12]: 1 µg/mL (≈ 0.566 µM)

**Q.** With `CCCCCCCCCCCC(=O)Nc1cc(Cl)cc(C(=O)N[C@@H](Cc2c[nH]c3ccccc23)C(=O)N[C@H](CC(N)=O)C(=O)N[C@@H](CC(=O)O)C(=O)N[C@@H]2C(=O)NCC(=O)N[C@@H](CCCN)C(=O)N[C@@H](CC(=O)O)C(=O)N[C@H](C)C(=O)N[C@@H](CC(=O)O)C(=O)NCC(=O)N[C@H](CO)C(=O)N[C@@H]([C@H](C)CC(=O)O)C(=O)N[C@@H](CC(=O)c3ccccc3N)C(=O)O[C@@H]2C)c1Cl` [Compound 7] as the molecule, how does the MIC [1] read?
**A.** 1 µg/mL (≈ 0.544 µM)

**Q.** And the “ED50 Values Streptococcus pyogenes Oral” value [2]?
**A.** > 200 mg/kg × 2

**Q.** And the “ED50 Values Streptococcus pyogenes Subcutaneous” value [2]?
**A.** 0.23 mg/kg × 2

**Q.** And the “ED50 Values Staphylococcus aureus Subcutaneous” value [3]?
**A.** 19 mg/kg × 2

**Q.** And the MIC [4]?
**A.** 2 µg/mL (≈ 1.09 µM)

**Q.** What about the MIC [5] of the same molecule?
**A.** 2 µg/mL (≈ 1.09 µM)

**Q.** What about the MIC [6] of the same molecule?
**A.** 2 µg/mL (≈ 1.09 µM)

**Q.** What about the LD50 [7] of the same molecule?
**A.** 200 mg/kg

**Q.** What about the MIC [8] of the same molecule?
**A.** 0.5 µg/mL (≈ 0.272 µM)

**Q.** And the MIC [9]?
**A.** 1 µg/mL (≈ 0.544 µM)

**Q.** And the MIC [10]?
**A.** 0.125 µg/mL (≈ 0.0681 µM)

**Q.** And the MIC [11]?
**A.** 2 µg/mL (≈ 1.09 µM)

**Q.** What about the MIC [12] of the same molecule?
**A.** 2 µg/mL (≈ 1.09 µM)

**Q.** Which MIC [1] does the source give for `CCCCCCCCCCCC(=O)N[C@@H](Cc1ccccc1)C(=O)N[C@@H](Cc1c[nH]c2ccccc12)C(=O)N[C@H](CC(N)=O)C(=O)N[C@@H](CC(=O)O)C(=O)N[C@@H]1C(=O)NCC(=O)N[C@@H](CCCN)C(=O)N[C@@H](CC(=O)O)C(=O)N[C@H](C)C(=O)N[C@@H](CC(=O)O)C(=O)NCC(=O)N[C@H](CO)C(=O)N[C@@H]([C@H](C)CC(=O)O)C(=O)N[C@@H](CC(=O)c2ccccc2N)C(=O)O[C@@H]1C` [Compound 8] here?
**A.** 0.25 µg/mL (≈ 0.139 µM)

**Q.** And the “ED50 Values Streptococcus pyogenes Oral” value [2]?
**A.** 150 mg/kg × 2

**Q.** And the “ED50 Values Streptococcus pyogenes Subcutaneous” value [2]?
**A.** 0.32 mg/kg × 2

**Q.** And the “ED50 Values Staphylococcus aureus Subcutaneous” value [3]?
**A.** 2.35 mg/kg × 2

**Q.** What about the MIC [4] of the same molecule?
**A.** 0.5 µg/mL (≈ 0.278 µM)

**Q.** What about the MIC [5] of the same molecule?
**A.** 1 µg/mL (≈ 0.557 µM)

**Q.** And the MIC [6]?
**A.** 1 µg/mL (≈ 0.557 µM)

**Q.** What about the LD50 [7] of the same molecule?
**A.** 250 mg/kg

**Q.** What about the MIC [8] of the same molecule?
**A.** 0.25 µg/mL (≈ 0.139 µM)

**Q.** And the MIC [9]?
**A.** 0.25 µg/mL (≈ 0.139 µM)

**Q.** And the MIC [10]?
**A.** 0.125 µg/mL (≈ 0.0696 µM)

**Q.** What about the MIC [11] of the same molecule?
**A.** 1 µg/mL (≈ 0.557 µM)

**Q.** What about the MIC [12] of the same molecule?
**A.** 0.25 µg/mL (≈ 0.139 µM)

**Q.** Which results are given for `CCCCCCC(=O)NCCCCCCCCCCC(=O)N[C@@H](Cc1c[nH]c2ccccc12)C(=O)N[C@H](CC(N)=O)C(=O)N[C@@H](CC(=O)O)C(=O)N[C@@H]1C(=O)NCC(=O)N[C@@H](CCCN)C(=O)N[C@@H](CC(=O)O)C(=O)N[C@H](C)C(=O)N[C@@H](CC(=O)O)C(=O)NCC(=O)N[C@H](CO)C(=O)N[C@@H]([C@H](C)CC(=O)O)C(=O)N[C@@H](CC(=O)c2ccccc2N)C(=O)O[C@@H]1C` [Compound 14]?
**A.** MIC [1]: 2 µg/mL (≈ 1.14 µM); ED50 Values Streptococcus pyogenes Oral [2]: > 200 mg/kg × 2; ED50 Values Streptococcus pyogenes Subcutaneous [2]: > 9 mg/kg × 2; ED50 Values Staphylococcus aureus Subcutaneous [3]: > 18 mg/kg × 2; MIC [4]: 8 µg/mL (≈ 4.54 µM); MIC [5]: > 128 µg/mL; MIC [6]: 8 µg/mL (≈ 4.54 µM); LD50 [7]: > 600 mg/kg; MIC [8]: 4 µg/mL (≈ 2.27 µM); MIC [9]: 4 µg/mL (≈ 2.27 µM); MIC [10]: 8 µg/mL (≈ 4.54 µM); MIC [11]: 8 µg/mL (≈ 4.54 µM); MIC [12]: 64 µg/mL (≈ 36.3 µM)

**Q.** With `CCCCCCCCCC(=O)N[C@@H](Cc1ccccc1)C(=O)N[C@@H](Cc1c[nH]c2ccccc12)C(=O)N[C@H](CC(N)=O)C(=O)N[C@@H](CC(=O)O)C(=O)N[C@@H]1C(=O)NCC(=O)N[C@@H](CCCN)C(=O)N[C@@H](CC(=O)O)C(=O)N[C@H](C)C(=O)N[C@@H](CC(=O)O)C(=O)NCC(=O)N[C@H](CO)C(=O)N[C@@H]([C@H](C)CC(=O)O)C(=O)N[C@@H](CC(=O)c2ccccc2N)C(=O)O[C@@H]1C` [Compound 19, NTrp-[N-(n-Decanoyl)-L-phenylalanyl]-A-21978C Nucleus] as the molecule, how does the MIC [1] read?
**A.** 0.25 µg/mL (≈ 0.141 µM)

**Q.** What about the “ED50 Values Streptococcus pyogenes Oral” value [2] of the same molecule?
**A.** > 200 mg/kg × 2

**Q.** And the “ED50 Values Streptococcus pyogenes Subcutaneous” value [2]?
**A.** 0.39 mg/kg × 2

**Q.** And the “ED50 Values Staphylococcus aureus Subcutaneous” value [3]?
**A.** 0.7 mg/kg × 2 and 0.98 mg/kg × 2

**Q.** And the MIC [4]?
**A.** 1 µg/mL (≈ 0.566 µM)

**Q.** And the MIC [5]?
**A.** 8 µg/mL (≈ 4.53 µM)

**Q.** What about the MIC [6] of the same molecule?
**A.** 1 µg/mL (≈ 0.566 µM)

**Q.** And the LD50 [7]?
**A.** 600 mg/kg

**Q.** What about the MIC [8] of the same molecule?
**A.** 0.5 µg/mL (≈ 0.283 µM)

**Q.** And the MIC [9]?
**A.** 0.5 µg/mL (≈ 0.283 µM)

**Q.** And the MIC [10]?
**A.** 0.75 µg/mL (≈ 0.424 µM)

**Q.** And the MIC [11]?
**A.** 0.5 µg/mL (≈ 0.283 µM)

**Q.** What about the MIC [12] of the same molecule?
**A.** 2 µg/mL (≈ 1.13 µM)

**Q.** What does the source list for `CCCCCCCCCCCC(=O)N[C@@H](Cc1c[nH]c2ccccc12)C(=O)N[C@@H](Cc1c[nH]c2ccccc12)C(=O)N[C@H](CC(N)=O)C(=O)N[C@@H](CC(=O)O)C(=O)N[C@@H]1C(=O)NCC(=O)N[C@@H](CCCN)C(=O)N[C@@H](CC(=O)O)C(=O)N[C@H](C)C(=O)N[C@@H](CC(=O)O)C(=O)NCC(=O)N[C@H](CO)C(=O)N[C@@H]([C@H](C)CC(=O)O)C(=O)N[C@@H](CC(=O)c2ccccc2N)C(=O)O[C@@H]1C` [Compound 24]?
**A.** MIC [1]: 2 µg/mL (≈ 1.09 µM); ED50 Values Streptococcus pyogenes Oral [2]: > 200 mg/kg × 2; ED50 Values Staphylococcus aureus Subcutaneous [3]: 2.3 mg/kg × 2; MIC [4]: 4 µg/mL (≈ 2.18 µM); MIC [5]: 16 µg/mL (≈ 8.72 µM); MIC [6]: 4 µg/mL (≈ 2.18 µM); LD50 [7]: 450 mg/kg; MIC [8]: 1 µg/mL (≈ 0.545 µM); MIC [9]: 2 µg/mL (≈ 1.09 µM); MIC [10]: 1 µg/mL (≈ 0.545 µM); MIC [11]: 4 µg/mL (≈ 2.18 µM); MIC [12]: 4 µg/mL (≈ 2.18 µM)
